For ten compounds, melting point and IC50 results are on record in US6365584B1, “Arylysulphonamide-substituted benzimidazoles having tryptase-inhibiting activity” (Boehringer Ingelheim Pharma KG, priority 1999, dated 2002).

One data set deals with T1, rh beta tryptase (Homo sapiens, UniProt Q15661).
T1 construct: purchased Promega
Put plainly: tryptase inhibition test (cleavage of N-p-tosyl-Gly-Pro-Lys-para-nitroaniline, p-nitroaniline measured at 405 nm). Type of data set: biochemical. Conditions: Tris HCl buffer pH 7.4 with calcium and heparin; substrate 0.6 mM; 5 min pre-incubation, 5 min incubation at 37° C.; enzyme activity 0.91 U/ml. As to the method:
The compounds according to the invention are characterised by their tryptase-inhibiting activity. This ability to inhibit tryptase was investigated using the test described below. The measurement is carried out in Tris HCl buffer (100 mM), which additionally contains calcium (5 mM) and heparin (100 mg/ml), at pH 7.4. The standard used is rh beta tryptase which may be obtained commercially from Promega, for example. The substrate used is N-p-tosyl-Gly-Pro-Lys-para-nitroaniline in a concentration of 0.6 mM. The substrate is digested with tryptase to form p-nitroaniline which can be measured at 405 nm. Usually, an incubation period of 5 minutes and an incubation temperature of 37° C. are chosen. The enzyme activity used is 0.91 U/ml. The measurements are carried out in an Autoanalyser (CobasBio) made by Hofmann LaRoche. The potential inhibitory substances are used in concentrations of 10 μM in the screening, the inhibition of the tryptase being given in percent. The IC50 is determined at over 70% inhibition (concentration at which 50% of the enzyme activity is inhibited). After 5 minutes' pre-incubation of the potential inhibitory substances, the substrate is added to start the reaction, the formation of p-nitroaniline being taken as a measurement of the enzyme activity after 5 minutes, after testing the linearity.
The data obtained after the above test has been carried out (IC50 values) can be found in Table 3.

The structures appear in SMILES notation. Where a name gives a salt, the structure may show the parent alone.

T1 sequence (Q15661 31-275): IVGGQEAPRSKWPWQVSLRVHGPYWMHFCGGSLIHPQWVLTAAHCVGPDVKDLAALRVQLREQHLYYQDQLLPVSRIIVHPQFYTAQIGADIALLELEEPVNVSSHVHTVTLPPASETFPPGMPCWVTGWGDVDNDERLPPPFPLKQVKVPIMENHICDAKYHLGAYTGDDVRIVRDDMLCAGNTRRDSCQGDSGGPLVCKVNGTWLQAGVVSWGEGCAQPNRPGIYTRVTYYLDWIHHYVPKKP

The compound `Cn1c(CCc2ccc(/C(N)=N/O)cc2)nc2cc(N(CCN3CCOCC3)S(=O)(=O)c3ccccc3)ccc21` [Example 56, N-{2-[2-(4-(amino-hydroximinomethyl)-phenyl)-ethyl]-1-methyl-benzimidazol-5-yl}-N-[2-(morpholin-4-yl)-ethyl]-(benzenesulphonamide)] registered a melting point of 183 to 186 °C.

Take `CCN(CC)CCN(c1ccc2c(c1)nc(CCc1ccc(C(=N)N)cc1)n2CCOc1ccccc1OC)S(=O)(=O)c1ccccc1` [Example 26, 1-[2-(2-methoxyphenoxy)ethyl]-2-[2-(4-amidinophenyl)-ethyl]-5-[N-(2-diethylaminoethyl)-benzenesulphonylamino]-benzimidazole]: the half-maximal inhibitory concentration (IC50) at rh beta tryptase was 74 nM. The same measure, in the same setting: the same measure for `CCN(CC)CCN(c1ccc2c(c1)nc(CCc1ccc(C(=N)N)cc1)n2C)S(=O)(=O)c1cccc2cccnc12` [Example 52, 1-Methyl-2-[2-(4-amidino-phenyl)-ethyl]-5-[N-(2-diethyl-aminoethyl)-quinol-8-yl-sulphonylamino]-benzimidazole;]: 29 nM; for `CCN(CC)CCN(c1ccc2c(c1)nc(CCc1ccc(C(=N)N)cc1)n2CCO)S(=O)(=O)c1ccccc1` [Example 16, 1-(2-hydroxyethyl)-2-[2-(4-amidinophenyl)-ethyl]-5-[N-(2-diethylaminoethyl)-benzene-sulphonylamino]-benzimidazole]: 121 nM; for `CCN(CC)CCN(c1ccc2c(c1)nc(CCc1ccc(C(=N)N)cc1)n2C)S(=O)(=O)c1ccccc1` [Example 2, N-{2-[2-(4-amidinophenyl)-ethyl]-1-methyl-benzimidazol-5-yl}-N-diethylaminoethyl-(benzenesulphonamide)-dihydrochloride]: 25 nM. On the same count and under the same terms, for `CCN(CC)CCN(c1ccc2c(c1)nc(CCc1ccc(C(=N)N)cc1)n2C)S(=O)(=O)c1csc2ccccc12` [Example 43, 1-Methyl-2-[2-(4-amidino-phenyl)-ethyl]-5-[N-(2-diethyl-aminoethyl)-benzo[b]thien-3-yl-sulphonylamino]-benzimidazole] the value was 25 nM; for `Cn1c(CCc2ccc(C(=N)N)cc2)nc2cc(N(CC(=O)N3CCN(Cc4ccccc4)CC3)S(=O)(=O)c3ccc4ccccc4c3)ccc21` [Example 50, 1-Methyl-2-[2-(4-amidino-phenyl)-ethyl]-5-[N-(4′-benzyl-piperazin-1-yl-carbonylmethyl)-naphth-2-ylsulphonylamino]-benzimidazole], 215 nM. The same measure, in the same setting: for `CCN(CC)CCN(c1ccc2c(c1)nc(CCc1ccc(C(=N)N)cc1)n2CCc1ccccc1)S(=O)(=O)c1ccccc1` [Example 24, 1-(2-phenylethyl)-2-[2-(4-amidinophenyl)-ethyl]-5-[N-(2-diethylaminoethyl)-benzene-sulphonylamino]-benzimidazole] the value was 190 nM; for `CN(C)CCCCN(c1ccc2c(c1)nc(CCc1ccc(C(=N)N)cc1)n2C)S(=O)(=O)c1ccccc1` [Example 54, 1-Methyl-2-[2-(4-amidino-phenyl)-ethyl]-5-[N-(4-dimethyl-aminobutyl)-benzenesulphonyl-amino]-benzimidazole], 27 nM. Consider `Cn1c(CCc2ccc(C(=N)N)cc2)nc2cc(N(CC(=O)N3CCC(Cc4ccccc4)CC3)S(=O)(=O)c3ccc4ccccc4c3)ccc21` [Example 46, 1-Methyl-2-[2-(4-amidino-phenyl)-ethyl]-5-[N-(4′-benzyl-piperid-1-yl-carbonylmethyl)-naphth-2-ylsulphonylamino]-benzimidazole], for which, on rh beta tryptase, the half-inhibitory concentration (IC50) is 30 nM.
